Experimental data: PubChem BioAssay AID504457 (Sanford-Burnham Center for Chemical Genomics, 2011)
Calls of active or inactive are those of the source.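 The calls were made as follows: active = compounds with IC50 below 20 µM; inactive = the rest.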

Molecular target: Type-1 angiotensin II receptor (Homo sapiens) (UniProt P30556)
Experiment: antagonism of AGTR1 beta-arrestin recruitment – cell-based, CHO-K1 AGTR1, luminescence, set 5, selectivity assay for APJ receptor antagonist project, SAR follow-up (AID 504457)
Details: CHO-K1 AGTR1 PathHunter beta-arrestin

Type-1 angiotensin II receptor (Homo sapiens), sequence (P30556 whole entry, looked up): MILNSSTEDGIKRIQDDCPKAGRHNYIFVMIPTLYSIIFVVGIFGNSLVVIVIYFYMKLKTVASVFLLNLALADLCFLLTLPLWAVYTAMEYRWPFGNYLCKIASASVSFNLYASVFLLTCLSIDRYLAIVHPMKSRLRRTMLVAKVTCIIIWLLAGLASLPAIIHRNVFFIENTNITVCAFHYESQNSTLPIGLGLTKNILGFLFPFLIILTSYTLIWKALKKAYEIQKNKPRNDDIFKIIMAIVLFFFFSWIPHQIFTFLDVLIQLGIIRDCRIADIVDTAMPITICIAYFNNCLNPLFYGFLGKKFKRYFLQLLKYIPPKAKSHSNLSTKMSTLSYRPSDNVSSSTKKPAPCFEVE

IC50, inactive:
C=CCOc1ccc(COc2ccccc2)cc1 > 79 µM
Cc1cc(C)nc(SCc2cc(=O)c(O)co2)n1 > 79 µM
CC(=O)Oc1cc2c(cc1Cl)C(c1ccccc1Cl)CC1(CC(C)(C)NC(=S)N1)O2 (centres undefined) > 79 µM
Cc1ccccc1C1CC2(CC(C)(C)NC(=S)N2)Oc2cc(O)c(Cl)cc21 (centres undefined)
C=CCOc1ccc(CSc2nc(C)cc(C)n2)cc1OC > 79 µM
O=c1cc(CSc2ncccn2)occ1O > 79 µM
Cc1ccc(C(=O)Oc2coc(CSc3ncccn3)cc2=O)cc1[N+](=O)[O-] > 79 µM
C=CCOc1ccc(CSc2nccc(C)n2)cc1 > 79 µM
O=C(Oc1coc(CSc2ncccn2)cc1=O)c1ccc(Br)cc1 > 79 µM
COc1cc(CSc2nc(C)cc(C)n2)ccc1O > 79 µM
Cc1ccnc(SCc2cc(=O)c(OC(=O)c3ccc([N+](=O)[O-])cc3)co2)n1 > 79 µM
Cc1cc(C)nc(SCc2cc(=O)c(OC(=O)c3cc([N+](=O)[O-])ccc3Cl)co2)n1
COc1ccccc1NC(=O)CN1C(=O)C(=O)c2ccccc21 > 79 µM
Cc1ccnc(SCc2cc(=O)c(OC(=O)c3ccc(C#N)cc3)co2)n1 > 79 µM
COc1ccc(C2CC3(CC(C)(C)NC(=S)N3)Oc3cc(OC(C)=O)cc(C)c32)cc1 (centres undefined) > 79 µM
N#Cc1ccc(C(=O)Oc2coc(CSc3ncccn3)cc2=O)cc1 > 79 µM
CC1(C)CC2(CC(c3ccc(F)cc3)c3ccc(O)cc3O2)NC(=S)N1 (centres undefined)
Cc1ccnc(SCc2cc(=O)c(OC(=O)c3ccccc3)co2)n1 > 79 µM
COc1ccc(C2CC3(CC(C)(C)NC(=S)N3)Oc3cc(O)cc(C)c32)cc1 (centres undefined) > 79 µM
